Experimental data: the NIST ThermoML archive (doi:10.1021/je200681k)
Numbers after ± are expanded uncertainties.

Columns and labels:
[1] = Molar enthalpy of transition or fusion; conditions: Crystal; DSC
[2] = Crystal; DTA

SMILES	Molar enthalpy of transition or fusion [1]	Normal melting temperature [2]
O=C(O)CCCCCC(=O)O [1,7-heptanedioic acid]	6.88 ± 0.287 kcal/mol	104.2 ± 0.53 °C
CC(C(=O)O)C(C)C(=O)O (stereo not drawn) [2,3-dimethyl-1,4-butanedioic acid]	4.04 ± 0.167 kcal/mol	121.33 ± 0.53 °C
CC(CC(=O)O)CC(=O)O [3-methylpentanedioic acid]	7.41 ± 0.335 kcal/mol	85.46 ± 0.53 °C
O=C(O)c1ccccc1 [benzoic acid]	4.47 ± 0.172 kcal/mol	122.93 ± 0.53 °C
